US20060058346A1, “Novel enantiomers of etrahydroisoquinoline derivatives and theirpharmaceutically acceptable salts, their preparations and pharmaceutical compositions” (priority 2002, published 2006)
Like-named read-outs stand apart in the source and are kept apart here.

Key:
rat PRP = assay: Inhibition of platelet aggregation in rat PRP; type: cell-based; details: for IC50: Platelet, rat PRP; for inhibitory effect on epinephrine-induced platelet aggregation, times as strong as R-enantiomer: S versus R; for inhibitory effect on epinephrine-induced platelet aggregation, times as strong as racemic mixture: S versus racemic mixture; for inhibition of platelet aggregation induced by ADP: even at the concentration as high as 1×10^−3 M
Protocol: Male rat (weighing 200±20 g) was anaesthetized with ether. The blood (nine volumes) was collected from heart using a plastic syringe containing 2.2% sodium citrate (one volume). The collected blood was centrifuged at 200×g for 10 minutes to give supernatant platelet-rich plasma (PRP). The residue was centrifuged again at 700×g for 30 minutes, giving platelet-poor plasma (PPP) for experiment. We used a platelet analyzer to count the number of platelet of the PRP. PRP was diluted with physiological saline solution to prepare solution containing platelets in an amount of 400-450×10^6/ml. The inhibitory effects of the compound represented by formulas 3 to 8 was evaluated by platelet aggregation analyzer, and the inhibitory effect of each compound is given as % below. That is, after PRP was incubated for 3 minutes at 37° C., the compounds or a carrier was added thereto, and after 1 min, platelet aggregation-inducing agent such as ADP, collagen, arachidonic acid (AA), U46619 or epinephrine was added thereto, followed by investigation of turbidity caused by aggregation of platelets. % Inhibition=A−B/A×100 [arithmetic formula 1] • (A: Platelet aggregation rate in group treated with an aggregation-inducing agent; • B: Platelet aggregation rate in group treated with both an aggregation-inducing agent and the enantiomers simultaneously)

left auricle muscle = assay: Contractile force of left auricle muscle excised from rats; parameters: species or system rat; details: for Contractile Force of Auricle Muscles: vehicle control:100%
Protocol: Immediately after Sprague-Dawley rats (female or male) were anaesthetized with pentobarbital sodium (50 mg/kg, i.m.), the thorax was opened to excise the heart. The heart was submerged in Krebs solution, and left auricle muscle and right auricle muscle were then isolated. The left auricle muscle was placed in an organ bath for recording of contractile force, and applied with electrical field stimulation (voltage 10% higher than threshold voltage, 1 Hz frequency, 5 ms duration). In the case of right auricle muscle, which contracts spontaneously, the number of continuous beats was recorded. In this experiment, to measure contractile fore of the two auricle muscles, the organ bath was warmed to 37° C., and as a physiological solution, Krebs solution (119.8 mM NaCl, 4.6 mM KCl, 2.5 mM CaCl2, 1.2 mM MgCl2, 25 mM NaHCO3, 1.2 mM KH2PO4, 10 mM glucose, 1 mM EDTA, pH 7.4) was used. The Krebs solution (pH 7.4) was continuously saturated with a gas mixture of 95% O2 and 5% CO2. The auricle muscle was under a tension of 1 g, and Krebs solution was exchanged with fresh solution at intervals of 20 minutes while equilibrium was maintained during a recording period of 60 minutes.

LPS-injected rat = assay: Survival in LPS-injected rat; type: in vivo; details: for survival at 30 mg/kg than 15 mg/kg: LPS 20 mg/kg
Protocol: Rats (25˜30 g, ICR), originated from NIH cancer institute (Bethesda, Md., USA) were purchased from Korea Test Animal Corp. (Unsung, Korea). 20 mg/kg of LPS was injected to abdominal cavity of the rat. Thereafter, survival was observed every 24 hours for seven days, to investigate effect of enantiomer on the survival in LPS-injected rat. The compound represented by formula 3 to 8 was administered 30 min before the LPS injection.

[1] = Acute toxicity in rat (LD50); type: in vivo; details: Sprague-Dawley, in vivo
Protocol: Sprague-Dawley rats (six weeks) were used as test sample. Each group was comprised of two rats. […] The said emulsion was administered to two rats one times using intravenous injection and intraperitoneal injection.

[2] = tested on: RAW 264.7 macrophage cells; assay: Nitric oxide production in macrophage cell stimulated by LPS (Griess); type: cell-based; details: for NO production by LPS in macrophage cell: LPS 1 μg/ml; for inhibition of production of NO: LPS-stimulated macrophage cell
Protocol: RAW 264.7 macrophage cells were plated on 100 mm culture dishes at a density of 1-2×10^5 cells. Thereafter, the said macrophage cell was incubated in DMEM medium containing 10% fetal calf serum (heat-inactivated), 100 U/ml penicillin, and […] streptomycin in a CO2 incubator. The said macrophage cell was incubated therein confluently. The said incubated macrophage cells were transferred to serum-free DMEM medium, and further incubated therein for about 24 hours. Thereafter, macrophage cells were stimulated with LPS (1 μg/ml) for about 8 hours. (In this progress, experimental group was divided into two groups, group to which the compound was administered, and group to which the compound was not.) Then, nitrite quantification was achieved by performing calorimetric reaction for produced nitrite with Griess reagent and then measuring absorbance at 550 nm, while using NaNO2 as a standard.

[3] = tested on: rat with DIC and MOF induced by endotoxin; assay: Endotoxin-induced DIC and multiple organ failure in rat; type: in vivo; details: for serum level of FDP compared with R-configuration: 10 mg/kg, FIG. 4
Protocol: Rats (Crj:CD(SD); 250±20 g) were used to test sample. Before the compound was administered, the rat was not fed. The compound was orally administered one time per day for two days in an amount of 10 mg˜25 mg/10 ml/kg/day. Distilled water (control group and LPS group) or enantiomer was administered to the rat repeatedly. After one hour, rat was anaesthetized with intramuscular injection of 50 mg/kg of pentobarbital. […] Thereafter, 50 mg/kg of pentobarbital was injected at 2 hour to the rat by intramuscular injection. Therefore, the rat was anaesthetized for all the experiment and operation.
The blood (2 ml for FDP and 6 ml for other variables) was collected from abdominal artery using a plastic syringe, into glass tube containing soy bean trypsin inhibitor and Bothrops atrox venom to measure FDP and into plastic tube containing 2.2% sodium citrate (1/10, volume/volume). The aggregated blood was centrifuged at 1200×g for 5 minutes two times. Before measurement of FDP, the supernatant was stored at freezer for at least 12 hours. Citrated blood was centrifuged at 2000×g for 30 minutes. The supernatant was used for measurement of fibrinogen and PT or APTT time. The aggregated blood collected in glass tube was disposed at the room temperature for 30 min, centrifuged to give the serum for measurement of AST and BUN.
Platelet from total citrated blood was counted by using automatic platelet counter (PLT-4, Texas International Lab.) PT or APTT time was measured by Beckton Dickenson BBL Fibrosystem (Coctkeysville, USA). FDP analysis was accomplished by using Thrombo-wellcotest kit. The said analysis was accomplished by up and down dilution method semi-quantitatively. Measurement of AST and BUN was accomplished by using Autobiochemical analyzer (Hitach 747, Japan).

[4] = ADP 2 − 5 × 10^−6 M, read-out: IC50 platelet aggregation, ADP
[5] = U46619 1.5 × 10^−6 M with threshold collagen, read-out: IC50 platelet aggregation, U46619
[6] = arachidonic acid 1 − 4 × 10^−5 M with threshold collagen, read-out: IC50 platelet aggregation, AA
[7] = collagen 2 − 5 × 10^−6 g/ml, read-out: IC50 platelet aggregation, collagen
[8] = epinephrine 1 − 4 × 10^−6 M with threshold collagen, read-out: IC50 platelet aggregation, Epinephrine
[9] = 15 mg/kg compound 30 min before LPS 20 mg/kg i.p.
[10] = ip, single intraperitoneal injection, read-out: LD50, Intraperitioneal injection
[11] = single intravenous injection, read-out: LD50, Intravenous injection
[12] = 30 mg/kg compound 30 min before LPS 20 mg/kg i.p.

Row | Structure (SMILES) | IC50 (rat PRP; [4]) [µM] | IC50 (rat PRP; [5]) [µM] | IC50 (rat PRP; [6]) [µM] | IC50 (rat PRP; [7]) [µM] | IC50 (rat PRP; [8]) [µM] | inhibitory effect on epinephrine-induced platelet aggregation, times as strong as R-enantiomer (rat PRP) | inhibitory effect on epinephrine-induced platelet aggregation, times as strong as racemic mixture (rat PRP) | Contractile Force of Auricle Muscles (left auricle muscle; 1 × 10^−4 M) [%] | Contractile Force of Auricle Muscles (left auricle muscle; 1 × 10^−5 M) [%] | Contractile Force of Auricle Muscles (left auricle muscle; 1 × 10^−6 M) [%] | Contractile Force of Auricle Muscles (left auricle muscle; 1 × 10^−7 M) [%] | Contractile Force of Auricle Muscles (left auricle muscle; 3 × 10^−5 M) [%] | Contractile Force of Auricle Muscles (left auricle muscle; 3 × 10^−6 M) [%] | Contractile Force of Auricle Muscles (left auricle muscle; 3 × 10^−7 M) [%] | survival after six days (LPS-injected rat; [9]) [%] | LD50 [1, 10] [mg/kg] | LD50 [1, 11] [mg/kg] | NO production by LPS in macrophage cell ([2]; compound 10 μM) [µM] | NO production by LPS in macrophage cell ([2]; compound 50 μM) [µM] | NO production by LPS in macrophage cell ([2]; compound 100 μM) [µM] | further results
1 | Oc1ccc(C[C@@H]2NCCc3cc(O)c(O)cc32)cc1 [Formula 3, (S)-6,7-Dihydroxy-1-(p-hydroxyphenylmethyl)-1,2,3,4-tetrahydroisoquinoline] | > 1000 | 25 | 9.1 | 450 | 1.6 | about nine times as strong | about five times as strong | 300 | 300 | 250 | 140 | 300 | 290 | 180 | 80 | 450 | 154 | 30.5 | 22.3 | 18.2 | inhibition of platelet aggregation induced by ADP (rat PRP): did not inhibit; survival at 30 mg/kg than 15 mg/kg (LPS-injected rat): increased; serum level of FDP compared with R-configuration [3]: lower; platelet concentration compared with R-configuration ([3]; FIG. 2): higher; serum level of AST ([3]; LPS 15 mg/kg i.v. 4 hours): at the normal level; serum level of BUN, formula 3 versus formula 4 ([3]; LPS 15 mg/kg i.v. 4 hours): no difference
2 | Oc1ccc(C[C@H]2NCCc3cc(O)c(O)cc32)cc1 [Formula 4, (R)-6,7-Dihydroxy-1-(p-hydroxyphenylmethyl)-1,2,3,4-tetrahydroisoquinoline] | ≥ 1000 | 15 | 11 | 300 | 14 |  |  | 300 | 200 | 130 | 100 | 250 | 160 | 100 | 60 | 262 | 95 | 20.1 | 10.3 | 8.2 | inhibition of platelet aggregation induced by ADP (rat PRP): did not inhibit; effect on contractile force of auricle muscles (left auricle muscle): increased; survival after six days (LPS-injected rat; [12]): 67%; inhibition of production of NO [2]: inhibited production of NO weakly than S-enantiomer did; serum level of AST ([3]; LPS 15 mg/kg i.v. 4 hours): at the normal level; serum level of BUN, formula 3 versus formula 4 ([3]; LPS 15 mg/kg i.v. 4 hours): no difference
3 | Oc1cc2c(cc1O)[C@H](Cc1cccc3ccccc13)NCC2 [Formula 5] | 240 | 16 | 5.6 | 69 | 0.38 | about six times as strong | about five times as strong | 700 | 630 | 450 | 200 | 660 | 550 | 280 | 100 | 397 | 172 | 21.3 | 14.8 | 14.2 | effect on contractile force of auricle muscles (left auricle muscle): strongly increased; survival after six days (LPS-injected rat; [12]): 100%; survival at 30 mg/kg than 15 mg/kg (LPS-injected rat): increased; inhibition of production of NO [2]: strongly inhibited production of NO; platelet concentration, higher than with R-configuration ([3]; 10 mg/kg oral, LPS 15 mg/kg i.v. 4 hours): 20%; serum level of FDP compared with R-configuration [3]: lower
